Results as given in patent publication US20240182945A1, “PRODUCTS FOR REGULATION OF EUKARYOTIC AND MICROBIAL CELLS GROWTH” (priority 2021, published 2024).
Values after ≈ are worked out from the molar mass of the structure shown.

Assays:
Gram negative rods = assay: Supplements added to culture media to control bacterial diversity (microscopy, 18 h); format: cell-based; design: key: “+++” marks the diversity of certain bacterial type in control; “+++++” indicates an increased diversity of bacterial type; conditions: 18 h of cultivation
Source text: (§1) We next studied, could we regulate bacterial diversity grown from the bio samples with different compounds including transcriptase inhibitors, protease inhibitors, recombinase/integrase inhibitors, nucleases.

[1] = tested on: Gram positive sporeforming bacteria; assay: as above; format: cell-based; design: key: “+++” marks the diversity of certain bacterial type in control; “+++++” indicates an increased diversity of bacterial type; conditions: 18 h of cultivation
Source text: as §1

[2] = tested on: Gram positive non-sporeforming bacteria; assay: as above; format: cell-based; design: key: “+++” marks the diversity of certain bacterial type in control; “+++++” indicates an increased diversity of bacterial type; conditions: 18 h of cultivation
Source text: as §1

PP in sputum biosamples = assay: Presence of PP growth in wells with different tobramycin concentrations; format: cell-based; design: key: “+”—presence of bacterial growth, antibiotic is ineffective; “−”—absence of bacterial growth, antibiotic is effective
Method: Next, biosamples were plated to the wells of 48 well plate filled with Columbia +Pept Meat Agar supplemented with tobramycin taken at different concentrations (we have taken MIC as equal to Cmax) and presence of PP growth was evaluated in each well in 24 h of growth.

PP [3] = assay: Animals treated with amoxicillin regimens, decrease of PP count by 3log10 over 48 hours; format: in vivo; conditions: efficacy = decrease of PP count by 3log10 over 48 hours
Method: 25 animals were used (n=5 per group) and were treated with different concentrations of Amoxicillin according to the results obtained by proposed method from 3 different biosamples.
(§2) Efficacy was evaluated by the decrease of PP count by 3log10 over 48 hours.

Primary Pathogens = assay: Sensitivity of primary pathogens to antibiotics, standard serial microbroth-dilution method (Example 23); format: cell-based; conditions: for MIC: Pseudomonas aeruginosa
Source text: We used sputum from patients with different pulmonary infections. Pure bacterial culture of each microorganisms was obtained by routine microbiological methods, bacterial identification was done by MALDI-TOF analysis, microbial diversity of biosample was done by metagenomic analysis (16S RNA sequencing).
Primary pathogen was selected as a leading pathogen in each infection case, based on consultation with an independent doctors who have received a description of the clinical picture, microbiology and microbiology analyses. Sensitivity of PP to antibiotics was evaluated using a standard serial microbroth-dilution method.

PP [4] = assay: Neutropenic mouse pneumonia infected with biosamples, tobramycin treatment, decrease of PP count by 3log10 over 48 hours; format: in vivo, C57BL/6 mice; conditions: efficacy = decrease of PP count by 3log10 over 48 hours
Method: Next, using the same biosamples we infected mice modulating pneumonia. For that, adult C57BL/6 mice were rendered neutropenic by injecting cyclophosphamide subcutaneously 4 days before infection (150 mg/kg of body weight), 1 day before infection (100 mg/kg), and 1 day after infection (100 mg/kg). Mice were anesthetized with 2% isoflurane and orally instilled with biosample disluted in PBS. Briefly, nares were blocked, and mice aspirated 50 μL of the biosample into the lungs while being held vertically for 60 s. MIX was taken as a Cmax.
30 animals were used (n=10 per group) and were treated with different concentrations of tobramycin according to the results obtained by proposed method from 3 different biosamples.
as §2

## Nc1nc([O-])c2ncn(COCCO)c2n1.[Na+] [Group 12]
Gram negative rods; compound at 100 ug/mL
  diversity of Gram negative rods: +++
[1]; compound at 100 ug/mL
  diversity of Gram positive sporeforming bacteria: +++
[2]; compound at 100 ug/mL
  diversity of Gram positive non-sporeforming bacteria: +++++

## C[C@H](Cn1cnc2c(N)ncnc21)OCP(=O)(O)O [Group 8]
Gram negative rods; compound at 100 ug/mL
  diversity of Gram negative rods: +++
[1]; compound at 100 ug/mL
  diversity of Gram positive sporeforming bacteria: +++
[2]; compound at 100 ug/mL
  diversity of Gram positive non-sporeforming bacteria: +++++

## NC[C@H]1O[C@H](O[C@H]2[C@H](O)[C@@H](O[C@H]3O[C@H](CO)[C@@H](O)[C@H](N)[C@H]3O)[C@H](N)C[C@@H]2N)[C@H](N)C[C@@H]1O [Tobramycin]
PP in sputum biosamples; Biosample 1 (PP P. aeruginosa), 1/10 Cmax, 24 h
  Presence of bacterial growth in the wells: −
PP in sputum biosamples; Biosample 1 (PP P. aeruginosa), 1/100 Cmax, 24 h
  Presence of bacterial growth in the wells: +
PP in sputum biosamples; Biosample 1 (PP P. aeruginosa), Cmax × 2, 24 h
  Presence of bacterial growth in the wells: −
PP in sputum biosamples; Biosample 1 (PP P. aeruginosa), Cmax × 10, 24 h
  Presence of bacterial growth in the wells: −
PP in sputum biosamples; Biosample 1 (PP P. aeruginosa), Cmax, 24 h
  Presence of bacterial growth in the wells: −
PP in sputum biosamples; Biosample 1 (PP P. aeruginosa), ¼ Cmax, 24 h
  Presence of bacterial growth in the wells: −
PP in sputum biosamples; Biosample 1 (PP P. aeruginosa), ½ Cmax, 24 h
  Presence of bacterial growth in the wells: −
PP in sputum biosamples; Biosample 2 (PP P. aeruginosa), 1/10 Cmax, 24 h
  Presence of bacterial growth in the wells: +
PP in sputum biosamples; Biosample 2 (PP P. aeruginosa), 1/100 Cmax, 24 h
  Presence of bacterial growth in the wells: +
PP in sputum biosamples; Biosample 2 (PP P. aeruginosa), Cmax × 2, 24 h
  Presence of bacterial growth in the wells: −
PP in sputum biosamples; Biosample 2 (PP P. aeruginosa), Cmax × 10, 24 h
  Presence of bacterial growth in the wells: −
PP in sputum biosamples; Biosample 2 (PP P. aeruginosa), Cmax, 24 h
  Presence of bacterial growth in the wells: −
PP in sputum biosamples; Biosample 2 (PP P. aeruginosa), ¼ Cmax, 24 h
  Presence of bacterial growth in the wells: +
PP in sputum biosamples; Biosample 2 (PP P. aeruginosa), ½ Cmax, 24 h
  Presence of bacterial growth in the wells: +
PP in sputum biosamples; Biosample 3 (PP P. aeruginosa), 1/10 Cmax, 24 h
  Presence of bacterial growth in the wells: +
PP in sputum biosamples; Biosample 3 (PP P. aeruginosa), 1/100 Cmax, 24 h
  Presence of bacterial growth in the wells: +
PP in sputum biosamples; Biosample 3 (PP P. aeruginosa), Cmax × 2, 24 h
  Presence of bacterial growth in the wells: −
PP in sputum biosamples; Biosample 3 (PP P. aeruginosa), Cmax × 10, 24 h
  Presence of bacterial growth in the wells: −
PP in sputum biosamples; Biosample 3 (PP P. aeruginosa), Cmax, 24 h
  Presence of bacterial growth in the wells: −
PP in sputum biosamples; Biosample 3 (PP P. aeruginosa), ¼ Cmax, 24 h
  Presence of bacterial growth in the wells: −
PP in sputum biosamples; Biosample 3 (PP P. aeruginosa), ½ Cmax, 24 h
  Presence of bacterial growth in the wells: −
PP [3]; Group 1a, biosample #1, QID (lowest EFFECTIVE)
  Number of animals to whom therapy was effective/number of animals per group: 5/5
PP [3]; Group 2a, biosample #2, TID (lowest EFFECTIVE)
  Number of animals to whom therapy was effective/number of animals per group: 5/5
PP [3]; Group 2b, biosample #2, BID (highest INEFFECTIVE)
  Number of animals to whom therapy was effective/number of animals per group: 0/5
PP [3]; Group 3a, biosample #3, BID (lowest EFFECTIVE)
  Number of animals to whom therapy was effective/number of animals per group: 5/5
PP [3]; Group 3b, biosample #3, QID (highest INEFFECTIVE)
  Number of animals to whom therapy was effective/number of animals per group: 0/5
Primary Pathogens; Biosample 1, P. aeruginosa
  Sensitivity (CLSI interpretation): S
  MIC: 2 µg/mL (≈ 4.28 µM)
Primary Pathogens; Biosample 2, P. aeruginosa
  Sensitivity (CLSI interpretation): I
  MIC: 8 µg/mL (≈ 17.1 µM)
Primary Pathogens; Biosample 3, P. aeruginosa
  Sensitivity (CLSI interpretation): I
  MIC: 8 µg/mL (≈ 17.1 µM)
PP [4]; Group 1a, biosample #1, Cmax 1/10 (lowest EFFECTIVE)
  Number of animals to whom therapy was effective/number of animals per group: 5/5
PP [4]; Group 1b, biosample #1, Cmax 1/100 (highest INEFFECTIVE)
  Number of animals to whom therapy was effective/number of animals per group: 0/5
PP [4]; Group 2a, biosample #2, Cmax 1/1 (lowest EFFECTIVE)
  Number of animals to whom therapy was effective/number of animals per group: 5/5
PP [4]; Group 2b, biosample #2, Cmax 1/10 (highest INEFFECTIVE)
  Number of animals to whom therapy was effective/number of animals per group: 0/5
PP [4]; Group 3a, biosample #3, Cmax 1/4 (lowest EFFECTIVE)
  Number of animals to whom therapy was effective/number of animals per group: 5/5
PP [4]; Group 3b, biosample #3, Cmax 1/10 (highest INEFFECTIVE)
  Number of animals to whom therapy was effective/number of animals per group: 0/5

## Nc1nc([O-])c2ncn(COCCO)c2n1.[Na+] [Group 11]
Gram negative rods; compound at 0.5 ug/mL
  diversity of Gram negative rods: +++
[1]; compound at 0.5 ug/mL
  diversity of Gram positive sporeforming bacteria: +++
[2]; compound at 0.5 ug/mL
  diversity of Gram positive non-sporeforming bacteria: +++++

## C[C@H](Cn1cnc2c(N)ncnc21)OCP(=O)(O)O [Group 7]
Gram negative rods; compound at 0.5 ug/mL
  diversity of Gram negative rods: +++
[1]; compound at 0.5 ug/mL
  diversity of Gram positive sporeforming bacteria: +++
[2]; compound at 0.5 ug/mL
  diversity of Gram positive non-sporeforming bacteria: +++++
